Measured values published in patent publication US20210163451A1, “METHODS AND COMPOSITIONS FOR SUBSTITUTED 2,5-DIKETOPIPERAZINE ANALOGS” (University of Florida Research Foundation, Inc., priority 2018, published 2021).
Marks after values point to notes of the source that are not given here.

Assays:
[1] = system: TxtB; assay: TxtB substrate scope in TxtA/TxtB reactions; type: biochemical, S. scabies 87.22; parameters: key to TxtB substrate: +++++: Five ‘+’ represents the strong reactivity; ++++: The number of ‘+’ represents the reactivities of the enzymes to the substrate; +++: The number of ‘+’ represents the reactivities of the enzymes to the substrate; ++: The number of ‘+’ represents the reactivities of the enzymes to the substrate; +: one represent very weak reactivities
Experimental: Using the above strategy, it was determined that TxtB accepted only I-Trp among all 20 natural amino acids in the reaction (FIG. 2B, Table 1). When incubating with 15 I-Trp analogs with various substituents at α-position or C4, C5, C6 and C7 of I-Trp indole (Table 1), TxtB was able to use 4-F, 4-Me, 5-F, and 6-F-tryptophan as substrates in the DKP synthesis (Table 1). […] Indeed, the Micklefield group recently produced several thaxtomin analogs with C4-H, F, Cl, Br, or Me when expressing txtA/B in S. albus. The advanced understanding of substrate scopes of TxtA/B led to enzymatic creation of a library of 30 DKPs with 5 I-Trp analogs and 6 I-Phe analogs (FIG. 3C). The production of all DKPs were confirmed in HPLC analysis and verified in high resolution LC-MS analysis (Table 2).
(§1) TxtA/B reaction: 100 mM Tris-Cl (PH=8.0), 0.5 mM Nitro-L-tryptophan or L-tryptophan, 0.55 mM L-Phenylalanine, 3.2 μM txtA, 14.5 μM txtB, 2.5 mM ATP and 2 mM SAM in 100 μL reaction. 21° C. shaken with 400 rpm for 20 hours.
To probe the basis of chemical diversity of Thx DKP scaffold, next characterized was the substrate scopes of TxtA and TxtB. […] Bulkier aryl substituents decreased enzyme activity. […] From the modelled structure of TxtA adenylation (A) domain (FIG. 23), it was identified that Trp225 likely controls the binding of bulky L-Phe analogues. Indeed, the TxtA W225S mutant [Kries, H. et al. Angew. Chem. Int. Ed. Engl. […] We confirmed the product as p-azido-Thx D by HRMS, MS/MS, 1D and 2D NMR analysis (FIGS. 24-25). The substrate preference of TxtB was then assessed. […] Additionally, TxtB utilized 4F-L-, 5F-L-, 4Me-D,L- and 6F-D,L-Trp out of 15 L-Trp analogues carrying various substituents (Table 7) as substrates to synthesize desnitro dimethylated DKP analogues (FIG. 22). […] The tolerance to small modifications on L-Trp indole by TxtB agreed with a recent in vivo study by the Micklefield group [Winn, M. et al. Angew. Chem. Int. Ed. Engl. 2018 57:6830-6833]. […] Chem. Biol. 2018 14: 428-430].
(§2) The TxtA/B reaction solutions (100 μl) typically contained 100 mM Tris-Cl, pH 9.0, 0.5 mM amino acid substrates, 10 mM MgCl2, 2.5 mM ATP and 2 mM SAM. The reactions were initiated by adding 1.2 μM TxtA and 1.3 μM TxtB (final concentration) and incubated at 21° C. with shaking at 400 rpm. After 30 h, the reactions were terminated by mixing with 200 μl of methanol. Quenched solutions were centrifuged at 4° C., 16,000×g for 15 min and clear supernatants were collected and subjected to HPLC and LCMS analysis as detailed below. All experiments were repeated independently at least twice. The reaction solutions of TB14 and TxtA and TxtB were the same as those of TxtA and TxtB except the inclusion of 1.5 mM NAPDH, 0.75 mM NOC-5 and 11.1 μM TB14. The reactions were run for 30 h and the products were analyzed and quantitated as described above.

[2] = system: TxtA; assay: TxtA substrate scope in TxtA/TxtB reactions; type: biochemical, S. scabies 87.22
Experimental: To explore whether TxtA/B are versatile to generate a library of thaxtomin D analogs, enzymes' substrate tolerance was then examined in the reactions. […] Subsequently, the substrate scope of TxtA with 17 I-Phe analogs was assessed with various substituents at α-position or C2, C3, and C4 of the aryl group (Table 1).
as §1
(§3) TB14 and txtA/B coupling reaction: 100 mM Tris-Cl (PH=8.0), 0.5 mM L-tryptophan, 0.55 mM L-Phenylalanine, 1.5 mM NAPDH, 0.75 mM NOC-5, 3.2 μM txtA, 14.5 μM txtB, 2.5 mM ATP, 2 mM SAM and 11.1 μM TB14 in 100 μL reaction. Opened to air, 21° C. shaken with 400 rpm for 30 hours.
(§4) To probe the basis of chemical diversity of Thx DKP scaffold, next characterized was the substrate scopes of TxtA and TxtB. […] Chem. Int. Ed. Engl. […] The substrate preference of TxtB was then assessed. […] Chem. Int. Ed. Engl. 2018 57:6830-6833]. […] Chem. Biol. 2018 14: 428-430].
as §2

[3] = system: TxtA-W225S; assay: TxtA-W225S mutant substrate scope in TxtA/TxtB reactions; type: biochemical, S. scabies 87.22; conditions: for substrate preference of TxtAW225S mutant: Example 1; for TxtA-W225S substrate: Table 1, Example 1; for TxtAW225S substrate: Table 7, Example 2
Experimental: The nitro group of thaxtomins is essential for herbicidal activity, and is installed by TxtE. […] NADPH, NOC-5 as NO donor and SAM were included in the reaction. […] To further expand the substrate scope of TxtA, Trp225 was mutated into Ser in TxtA.
as §1, §3, §4, §2

[4] = system: radish seedlings; assay: Herbicidal activity in radish seedling assay; type: in vivo; conditions: total seedling length after 7 days on agar, 0 to 2 μM, mean±SD (n=4)
Experimental: Established protocols were followed to quantitate thaxtomin herbicidal activity in radish seedling assay (Jiang, G. et al. Appl Environ Microbiol 2018 84:e00164-18). In brief, serial concentrations (0 to 2 μM) of thaxtomins in DMSO were added into 20 mL of 1.5% warm agar solution with gentle agitation to prepare agar plates. DMSO was included as the negative control. Radish seeds (Burpee) were surface disinfested, pregerminated and selected when the radicle was […] and just emerged from the seed coat. Six radish seedlings were equally located on the surface of each plate with root ends pointed to the same direction. Agar plates were covered, sealed with Parafilm. Seedlings in agar plates grew at room temperature under 14-16 h fluorescent light per day for 7 days, and total seedling lengths were then recorded. The longest and the shorted seedlings would be excluded from the data analysis. Percent inhibition relative to the mean growth response in negative control was then calculated. Dose-response curves were fit to a four-parameter logistic model, and I50 values were determined from these curves.

[5] = system: TB14, TCB14, TxtA and TxtB; assay: Conversion to thaxtomin A analogues in the reactions of TB14, TCB14, TxtA and TxtB; type: biochemical; conditions: thaxtomin A analogue product from the listed L-Phe and L-Trp analogues
[6] = system: TB14, TxtA and TxtB; assay: Conversion to nitro-DKPs in the reactions of TB14, TxtA and TxtB; type: biochemical; conditions: nitro-DKP product from the listed L-Phe and L-Trp analogues
[7] = Example 1, TxtA/B reaction with 4-NO2-L-Trp as TxtB substrate
[8] = Example 2, reaction of TB14, TxtA and TxtB

## Cc1cccc2[nH]cc(CC(N)C(=O)O)c12 (racemic) [4Me-D,L-Tryptophan]
[1]; Table 1, Example 1
  TxtB substrate: ++
[1]; Table 7, Example 2
  TxtB substrate: +++

## NC(Cc1c[nH]c2cc(F)ccc12)C(=O)O (racemic) [6F-Tryptophan, 6F-D,L-tryptophan]
[1]; Table 1, Example 1
  TxtB substrate: ++
[1]; Table 7, Example 2
  TxtB substrate: +

## N[C@@H](Cc1ccccc1Br)C(=O)O [2Br-L-phenylalanine]
[2]; Table 1, Example 1
  TxtA substrate: +
[2]; Table 7, Example 2
  TxtA substrate: +

## N[C@@H](Cc1ccccc1F)C(=O)O [2F-L-phenylalanine]
[2]; [7]
  relative activity of TxtA toward substrate, relative to L-Phe: same level of activity
[2]; [8]
  relative activity of TxtA toward substrate, relative to L-Phe: ~73%
[2]; Table 1, Example 1
  TxtA substrate: ++++
[2]; Table 7, Example 2
  TxtA substrate: ++++

## Cc1ccccc1C[C@H](N)C(=O)O [2Me-L-phenylalanine]
[2]; Table 1, Example 1
  TxtA substrate: +++
[2]; Table 7, Example 2
  TxtA substrate: ++

## N[C@@H](Cc1cccc(Br)c1)C(=O)O [3Br-L-phenylalanine]
[2]; Table 1, Example 1
  TxtA substrate: +
[2]; Table 7, Example 2
  TxtA substrate: +

## N[C@@H](Cc1cccc(Cl)c1)C(=O)O [3Cl-L-phenylalanine]
[2]; Table 1, Example 1
  TxtA substrate: ++
[2]; Table 7, Example 2
  TxtA substrate: +

## N[C@@H](Cc1cccc(F)c1)C(=O)O [3F-L-phenylalanine]
[2]; [7]
  relative activity of TxtA toward substrate, relative to L-Phe: same level of activity
[2]; [8]
  relative activity of TxtA toward substrate, relative to L-Phe: equally active
[2]; Table 1, Example 1
  TxtA substrate: +++++
[2]; Table 7, Example 2
  TxtA substrate: +++++

## Cc1cccc(C[C@H](N)C(=O)O)c1 [3Me-L-phenylalanine]
[2]; [7]
  relative activity of TxtA toward substrate, relative to L-Phe: about 12%
[2]; [8]
  relative activity of TxtA toward substrate, relative to L-Phe: about 27%
[2]; Table 1, Example 1
  TxtA substrate: ++
[2]; Table 7, Example 2
  TxtA substrate: ++

## [N-]=[N+]=Nc1ccc(C[C@H](N)C(=O)O)cc1 [4-Azidophenylalanine]
[2]; [8]
  relative activity of TxtA toward substrate, relative to L-Phe: did not accept
[3]
  substrate preference of TxtAW225S mutant: strong preference
  TxtA-W225S substrate: ++
  TxtAW225S substrate: ++
[3]; Example 2, reaction with TB14, TxtA and TxtB
  substrate preference of TxtA W225S mutant: strong preference over L-Phe

## N[C@@H](Cc1c[nH]c2cccc([N+](=O)[O-])c12)C(=O)O [4-nitro-L-Tryptophan]
[1]; Table 1, Example 1
  TxtB substrate: +++++
[1]; Table 7, Example 2
  TxtB substrate: +++++

## N[C@@H](Cc1ccc(Br)cc1)C(=O)O [4Br-L-phenylalanine]
[2]; Table 1, Example 1
  TxtA substrate: +
[2]; Table 7, Example 2
  TxtA substrate: +

## N[C@@H](Cc1ccc(Cl)cc1)C(=O)O [4Cl-L-phenylalanine]
[2]; Table 1, Example 1
  TxtA substrate: ++
[2]; Table 7, Example 2
  TxtA substrate: +

## N[C@@H](Cc1c[nH]c2cccc(F)c12)C(=O)O [4F--Tryptophan, 4F-L-tryptophan]
[1]; Table 1, Example 1
  TxtB substrate: +
[1]; Table 7, Example 2
  TxtB substrate: +

## N[C@@H](Cc1ccc(F)cc1)C(=O)O [4F-L-phenylalanine]
[2]; [7]
  relative activity of TxtA toward substrate, relative to L-Phe: ~72%
[2]; Table 1, Example 1
  TxtA substrate: +++
[2]; Table 7, Example 2
  TxtA substrate: ++

## Cc1ccc(C[C@H](N)C(=O)O)cc1 [4Me-L-phenylalanine]
[2]; Table 1, Example 1
  TxtA substrate: +++
[2]; Table 7, Example 2
  TxtA substrate: +

## Cc1ccc(C[C@@]2(O)C(=O)N(C)[C@@H](Cc3c[nH]c4cccc([N+](=O)[O-])c34)C(=O)N2C)cc1O [4′Me-Thx A, 4′Me-thaxtomin A]
[4]; Raphanus sativus, 168 h
  IC50: 410 ± 10 nM

## Cc1ccc(C[C@H]2C(=O)N(C)[C@@H](Cc3c[nH]c4cccc([N+](=O)[O-])c34)C(=O)N2C)cc1 [4′Me-Thx D, 4′Me-thaxtomin D]
[4]; Raphanus sativus, 168 h
  IC50: 480 ± 40 nM

## N[C@@H](Cc1c[nH]c2ccc(F)cc12)C(=O)O [5F-Tryptophan, 5F-L-tryptophan]
[1]; Table 1, Example 1
  TxtB substrate: ++
[1]; Table 7, Example 2
  TxtB substrate: ++

## CN1C(=O)[C@](O)(Cc2cccc(O)c2)N(C)C(=O)[C@@H]1Cc1c[nH]c2cccc([N+](=O)[O-])c12 [Compound 1, thaxtomin A, reference compound]
[4]
  IC50: 390 ± 30 nM
[5]
  Conversion rate %: 6.84%

## N[C@@H](Cc1ccccc1)C(=O)O [L-phenylalanine]
[2]; Table 1, Example 1
  TxtA substrate: +++++^a
[2]; Table 7, Example 2
  TxtA substrate: +++++
[3]
  TxtA-W225S substrate: +
  TxtAW225S substrate: +

## N[C@@H](Cc1c[nH]c2ccccc12)C(=O)O [L-tryptophan]
[1]; Example 2, reaction without TB14
  TxtB activity, times less active than 4-NO2-L-Trp: 12 times
[1]; Table 1, Example 1
  TxtB substrate: +
[1]; Table 7, Example 2
  TxtB substrate: +

## N[C@@H](Cc1ccc(O)cc1)C(=O)O [L-tyrosine]
[3]
  substrate preference of TxtAW225S mutant: lower activity
  TxtA-W225S substrate: ++

## CN1C(=O)[C@H](Cc2c[nH]c3cccc([N+](=O)[O-])c23)N(C)C(=O)[C@@H]1Cc1ccc(N=[N+]=[N-])cc1 [compound 42]
[3]; catalyzed by TxtB and TxtAW225S (with TB14)
  Conversion rate %: 20.90%

## Cc1ccc(C[C@H]2C(=O)N(C)[C@@H](Cc3c[nH]c4cccc([N+](=O)[O-])c34)C(=O)N2C)cc1 [compound 54]
[6]
  Conversion rate %: 15.69%

## Cc1ccc(C[C@@]2(O)C(=O)N(C)[C@@H](Cc3c[nH]c4cccc([N+](=O)[O-])c34)C(=O)N2C)cc1O [compound 118]
[5]
  Conversion rate %: 3.98%

## Cc1cccc2[nH]cc(CC3C(=O)N(C)C(Cc4ccccc4)C(=O)N3C)c12 (centres unmarked) [desnitro-4Me-Thx D]
[4]
  IC50: 1980 ± 20 nM

## CN1C(=O)[C@H](Cc2c[nH]c3cccc([N+](=O)[O-])c23)N(C)C(=O)[C@@H]1Cc1ccc(N=[N+]=[N-])cc1 [p-N3-Thx D, p-N3-thaxtomin D]
[4]; Raphanus sativus, 168 h
  IC50: 1290 ± 210 nM
